Experimental data taken from paper PMC9580147, “A novel C-type lectin from Trichinella spiralis mediates larval invasion of host intestinal epithelial cells” (Veterinary Research, 2022).

Target: T1, rTsCTL (TsCTL, Trichinella spiralis type C lectin) (Trichinella spiralis, UniProt A0A0V1BZI5)
T1 construct: gene T01_9679; N-terminal His-tag (pQE-80L), E. coli BL21 (DE3), Ni-NTA purified; 208 aa full length, 24 kDa; C-type lectin domain residues 24-156
Test: inhibition of haemagglutination of mouse erythrocytes by rTsCTL
Type: biochemical
Details: rTsCTL 100 ug/mL; 2% mouse erythrocytes; room temperature, 1 h; Ca2+-dependent lectin; TBS pH 8.0; presumed carbohydrate recognition domain

T1 sequence (A0A0V1BZI5 entry or part of it): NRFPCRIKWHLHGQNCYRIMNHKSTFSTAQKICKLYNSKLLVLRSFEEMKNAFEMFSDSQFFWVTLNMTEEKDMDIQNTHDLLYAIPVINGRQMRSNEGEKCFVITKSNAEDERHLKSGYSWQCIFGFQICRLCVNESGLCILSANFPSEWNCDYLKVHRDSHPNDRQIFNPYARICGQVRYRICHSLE

## OC[C@H]1OC(O)[C@@H](O)[C@@H](O)[C@@H]1O (stereo partly shown) [mannose]
  minimum inhibitory dose: 100 mM
